Measured values: the NIST ThermoML archive (doi:10.1021/je201211f)

Tests used:
[1] = refractive index (Na D-line) (dimensionless); conditions: 298.15 K; 101.33 kPa; Liquid; Standard Abbe refractometry
[2] = 298.15 K, 101.33 kPa, Liquid; for viscosity: Capillary tube (Ostwald / Ubbelohde) method; for mass density: Vibrating tube method
[3] = xn = mol fraction of the nth substance listed; conditions: 101 kPa, Liquid; for mass density: Vibrating tube method; for viscosity: Capillary tube (Ostwald / Ubbelohde) method
[4] = refractive index (Na D-line) (dimensionless); xn = mol fraction of the nth substance listed; conditions: 298.15 K, 101 kPa, Liquid

CC(=O)O [acetic acid]
Conditions	mass density [kg/m3]	refractive index	viscosity [mPa·s]
[1]	–	1.3698	–
[2]	1043.58	–	1.127

ClC=C(Cl)Cl [trichloroethene]
Conditions	mass density [kg/m3]	refractive index	viscosity [mPa·s]
[1]	–	1.475	–
[2]	1455.53	–	0.582

ClC=C(Cl)Cl [trichloroethene] + Cc1ccc(C)cc1
Conditions	mass density [kg/m3]	refractive index	viscosity [mPa·s]
[3], 293.15 K, x1 = 0.0843	899.17	–	–
[3], 293.15 K, x1 = 0.1806	944.97	–	–
[3], 293.15 K, x1 = 0.2528	980.96	–	–
[3], 293.15 K, x1 = 0.3239	1017.91	–	–
[3], 293.15 K, x1 = 0.403	1060.83	–	–
[3], 293.15 K, x1 = 0.49	1110.44	–	–
[3], 293.15 K, x1 = 0.5689	1157.79	–	–
[3], 293.15 K, x1 = 0.6381	1201.31	–	–
[3], 293.15 K, x1 = 0.7202	1255.5	–	–
[3], 293.15 K, x1 = 0.7975	1309.15	–	–
[3], 293.15 K, x1 = 0.8925	1379.16	–	–
[3], 293.15 K, x1 = 0.9582	1430.28	–	–
[3], 298.15 K, x1 = 0.0843	894.6	–	–
[3], 298.15 K, x1 = 0.0897	–	–	0.6075
[3], 298.15 K, x1 = 0.154	–	–	0.606
[3], 298.15 K, x1 = 0.1806	940.12	–	–
[3], 298.15 K, x1 = 0.2402	–	–	0.6043
[3], 298.15 K, x1 = 0.2528	975.88	–	–
[3], 298.15 K, x1 = 0.318	–	–	0.6026
[3], 298.15 K, x1 = 0.3239	1012.59	–	–
[3], 298.15 K, x1 = 0.399	–	–	0.5999
[3], 298.15 K, x1 = 0.403	1055.25	–	–
[3], 298.15 K, x1 = 0.4801	–	–	0.5968
[3], 298.15 K, x1 = 0.49	1104.53	–	–
[3], 298.15 K, x1 = 0.5624	–	–	0.594
[3], 298.15 K, x1 = 0.5689	1151.57	–	–
[3], 298.15 K, x1 = 0.6381	1194.8	–	–
[3], 298.15 K, x1 = 0.64	–	–	0.5915
[3], 298.15 K, x1 = 0.718	–	–	0.5888
[3], 298.15 K, x1 = 0.7202	1248.62	–	–
[3], 298.15 K, x1 = 0.7975	1301.88	–	–
[3], 298.15 K, x1 = 0.8	–	–	0.5861
[3], 298.15 K, x1 = 0.8834	–	–	0.5834
[3], 298.15 K, x1 = 0.8925	1371.4	–	–
[3], 298.15 K, x1 = 0.9582	1422.14	–	–
[3], 298.15 K, x1 = 0.9632	–	–	0.5808
[3], 303.15 K, x1 = 0.0843	890.02	–	–
[3], 303.15 K, x1 = 0.1806	935.27	–	–
[3], 303.15 K, x1 = 0.2528	970.8	–	–
[3], 303.15 K, x1 = 0.3239	1007.28	–	–
[3], 303.15 K, x1 = 0.403	1049.65	–	–
[3], 303.15 K, x1 = 0.49	1098.61	–	–
[3], 303.15 K, x1 = 0.5689	1145.35	–	–
[3], 303.15 K, x1 = 0.6381	1188.25	–	–
[3], 303.15 K, x1 = 0.7202	1241.69	–	–
[3], 303.15 K, x1 = 0.7975	1294.56	–	–
[3], 303.15 K, x1 = 0.8925	1363.59	–	–
[3], 303.15 K, x1 = 0.9582	1413.95	–	–
[4], Standard Abbe refractometry, x1 = 0.0897	–	1.4921	–
[4], Standard Abbe refractometry, x1 = 0.154	–	1.4911	–
[4], Standard Abbe refractometry, x1 = 0.2402	–	1.4897	–
[4], Standard Abbe refractometry, x1 = 0.318	–	1.4885	–
[4], Standard Abbe refractometry, x1 = 0.399	–	1.4873	–
[4], Standard Abbe refractometry, x1 = 0.4801	–	1.486	–
[4], Standard Abbe refractometry, x1 = 0.5624	–	1.4844	–
[4], Standard Abbe refractometry, x1 = 0.64	–	1.4829	–
[4], Standard Abbe refractometry, x1 = 0.721	–	1.4811	–
[4], Standard Abbe refractometry, x1 = 0.7988	–	1.4794	–
[4], Standard Abbe refractometry, x1 = 0.8834	–	1.4775	–
[4], Standard Abbe refractometry, x1 = 0.961	–	1.4753	–

ClC=C(Cl)Cl [trichloroethene] + Cc1cccc(C)c1
[3]
Conditions	mass density, 293.15 K [kg/m3]	mass density, 298.15 K [kg/m3]	mass density, 303.15 K [kg/m3]	viscosity, 298.15 K [mPa·s]
x1 = 0.0494	886.2	881.77	877.34	–
x1 = 0.0768	–	–	–	0.5895
x1 = 0.0796	899.93	895.43	890.91	–
x1 = 0.1465	–	–	–	0.5893
x1 = 0.1531	934.34	929.62	924.88	–
x1 = 0.23	971.87	966.92	961.95	–
x1 = 0.2415	–	–	–	0.5895
x1 = 0.3097	1012.52	1007.32	1002.09	–
x1 = 0.3204	–	–	–	0.5897
x1 = 0.3935	–	–	–	0.5893
x1 = 0.4065	1064.66	1059.1	1053.53	–
x1 = 0.4841	1108.6	1102.78	1096.93	–
x1 = 0.496	–	–	–	0.5883
x1 = 0.5561	1151.33	1145.2	1139.05	–
x1 = 0.5613	–	–	–	0.5875
x1 = 0.6423	–	–	–	0.5863
x1 = 0.6453	1206.86	1200.35	1193.84	–
x1 = 0.709	1248.6	1241.79	1234.95	–
x1 = 0.7204	–	–	–	0.5851
x1 = 0.7639	–	–	–	0.5844
x1 = 0.7989	1310.61	1303.35	1296.06	–
x1 = 0.8774	–	–	–	0.5823
x1 = 0.8937	1380.16	1372.41	1364.61	–
x1 = 0.9596	–	–	–	0.5808
x1 = 0.974	1442.88	1434.66	1426.38	–

[4]
Conditions	refractive index
x1 = 0.085	1.4932
x1 = 0.1622	1.4922
x1 = 0.2415	1.4908
x1 = 0.3204	1.4894
x1 = 0.3935	1.488
x1 = 0.496	1.4859
x1 = 0.5613	1.4845
x1 = 0.6429	1.4825
x1 = 0.7226	1.4807
x1 = 0.8061	1.4789
x1 = 0.8832	1.4773
x1 = 0.9596	1.4756

ClC=C(Cl)Cl [trichloroethene] + Cc1ccccc1C
[3]
Conditions	mass density, 293.15 K [kg/m3]	mass density, 298.15 K [kg/m3]	mass density, 303.15 K [kg/m3]	viscosity, 298.15 K [mPa·s]
x1 = 0.0721	–	–	–	0.7421
x1 = 0.088	919.03	914.58	910.12	–
x1 = 0.1511	948.33	943.7	939.06	–
x1 = 0.1615	–	–	–	0.725
x1 = 0.2426	992.67	987.75	982.82	–
x1 = 0.2437	–	–	–	0.7095
x1 = 0.3181	–	–	–	0.6959
x1 = 0.3249	1034.35	1029.15	1023.95	–
x1 = 0.3895	1068.4	1062.98	1057.54	–
x1 = 0.3957	–	–	–	0.6808
x1 = 0.4775	1116.88	1111.15	1105.38	–
x1 = 0.4824	–	–	–	0.6644
x1 = 0.5495	1158.43	1152.41	1146.34	–
x1 = 0.558	–	–	–	0.6498
x1 = 0.6346	–	–	–	0.6363
x1 = 0.6384	1212.22	1205.79	1199.32	–
x1 = 0.7132	1259.66	1252.89	1246.08	–
x1 = 0.7158	–	–	–	0.6224
x1 = 0.79	1310.86	1303.68	1296.47	–
x1 = 0.802	–	–	–	0.6081
x1 = 0.8776	1372.25	1364.6	1356.92	–
x1 = 0.8818	–	–	–	0.595
x1 = 0.9559	–	–	–	0.5836
x1 = 0.9583	1431.95	1423.79	1415.62	–

[4]
Conditions	refractive index
x1 = 0.0721	1.501
x1 = 0.1615	1.499
x1 = 0.2437	1.4973
x1 = 0.3075	1.4958
x1 = 0.3957	1.4936
x1 = 0.4824	1.4917
x1 = 0.5643	1.4896
x1 = 0.6346	1.4875
x1 = 0.7158	1.4847
x1 = 0.806	1.4813
x1 = 0.8818	1.4788
x1 = 0.9637	1.4762
